# Source: US5567692A, “9-[(substituted glycyl) amido)]-6-demethyl-6-deoxytetracyclines” (priority 1995, dated 1996)
# Counter-ions that a name gives are not always drawn.
# Columns and labels:
# Morganella morganii = assay: MIC range, recent clinical and veterinary isolates; assay type: cell-based; conditions: 18 h, [16] isolates
# E. coli J3272 Tet D = assay: microbe, parasite or virus in culture; assay type: cell-based; conditions: dihydrochloride
# [1] = system: Ps. aeruginosa ATCC 27853; assay: MIC, agar dilution; assay type: cell-based; conditions: Ps. aeruginosa ATCC 27853; dihydrochloride
# [2] = system: X. maltophilia NEMC 87210; assay: MIC, agar dilution; assay type: cell-based; conditions: X. maltophilia NEMC 87210; dihydrochloride
# Listeria monocytogenes = assay: MIC range, recent clinical and veterinary isolates; assay type: cell-based; conditions: 18 h, [8] isolates
# [3] = system: Staphylococcus Coagulase-negative, (methicillin-resistant); assay: MIC range, recent clinical and veterinary isolates; assay type: cell-based; conditions: 18 h, [16] isolates
# Streptococcus pyogenes = assay: MIC range, recent clinical and veterinary isolates; assay type: cell-based; conditions: 18 h, read-out: MIC Range
# [4] = system: Staphylococcus aureus strain Smith (tetracycline sensitive); assay: Acute lethal infection in mice, S. aureus Smith; assay type: in vivo; conditions: mice, S. aureus Smith (Sens), 7 day survival, dihydrochloride, 10080 min
# Bacteroides spp. = assay: MIC range, recent clinical and veterinary isolates; assay type: cell-based; conditions: Bacteroides, 18 h, read-out: MIC Range
# S. aureus NEMC 8769 = assay: MIC, agar dilution; assay type: cell-based
# Salmonella spp. = assay: MIC range, recent clinical and veterinary isolates; assay type: cell-based; conditions: 18 h, [11] isolates
# Streptococcus agalactiae = assay: MIC range, recent clinical and veterinary isolates; assay type: cell-based; conditions: 18 h, read-out: MIC Range
# Clostridium difficile = assay: MIC range, recent clinical and veterinary isolates; assay type: cell-based; conditions: Clostridioides difficile, 18 h; Clostridium difficile, [12] isolates; read-out: MIC Range
# Clostridium perfringens = assay: microbe, parasite or virus in culture; assay type: cell-based; conditions: 18 h, read-out: MIC Range
# [5] = system: Salmonella choleraesuis (Veterinary); assay: MIC range, recent clinical and veterinary isolates; assay type: cell-based; conditions: Salmonella enterica, 18 h, [15] isolates
# [6] = system: E. coli UBMS 89-2 Tet sens.; assay: MIC, agar dilution; assay type: cell-based; conditions: E. coli UBMS 89-2 Tet sens.
# Xanthamonas maltophilia = assay: MIC range, recent clinical and veterinary isolates; assay type: cell-based; conditions: 18 h, read-out: MIC Range
# [7] = system: Escherichia coli (Veterinary); assay: MIC range, recent clinical and veterinary isolates; assay type: cell-based; conditions: 18 h, [15] isolates
# E. coli J2175 = assay: MIC, agar dilution; assay type: cell-based
# [8] = system: Enterococcus spp, (Vancomycin-resistant); assay: MIC range, recent clinical and veterinary isolates; assay type: cell-based; conditions: 18 h, [8] isolates
# E. coli PRP1 Tet A = assay: microbe, parasite or virus in culture; assay type: cell-based; conditions: dihydrochloride
# E. coli BAJ9003 IMP MUT = assay: microbe, parasite or virus in culture; assay type: cell-based; conditions: E. coli BAJ9003 IMP MUT
# Bacteroides fragilis = assay: MIC range, recent clinical and veterinary isolates; assay type: cell-based; conditions: 18 h, [11] isolates
# Streptococcus pneumoniae = assay: MIC range, recent clinical and veterinary isolates; assay type: cell-based; conditions: 18 h, [10] isolates, read-out: MIC Range
# Proteus mirabilis = assay: MIC range, recent clinical and veterinary isolates; assay type: cell-based; conditions: 18 h, read-out: MIC Range
# Neisseria gonorrhoeae = assay: MIC range, recent clinical and veterinary isolates; assay type: cell-based; conditions: 18 h, [14] isolates
# Proteus vulgaris = assay: MIC range, recent clinical and veterinary isolates; assay type: cell-based; conditions: 18 h, [18] isolates, read-out: MIC Range
# E. faecalis ATCC 29212 = assay: MIC, agar dilution; assay type: cell-based; conditions: E. faecalis ATCC 29212
structure (smiles),measurement,setting,value
"CN(C)CC(=O)Nc1ccc2c(c1O)C(=O)C1=C(O)[C@]3(O)C(=O)C(C(N)=O)=C(O)[C@@H](N(C)C)C3CC1C2 (stereo partly drawn) [CC, [4S-(4alpha,12aalpha)]-4-(Dimethylamino)-9-[[(dimethylamino)acetyl]amino]-1,4,4a,5,5a,6,11,12a-octahydro-3,10,12,12a-tetrahydroxy-1,11-dioxo-2-naphthacenecarboxamide dihydrochloride]",MIC,Morganella morganii,0.5 to 1 µg/mL
same,MIC,E. coli J3272 Tet D,0.03 µg/mL
same,MIC,[1],4 µg/mL
same,MIC,[2],1 µg/mL
same,MIC,Listeria monocytogenes,0.06 to 0.12 µg/mL
same,MIC,[3],0.06 to 16 µg/mL
same,MIC,Streptococcus pyogenes,0.06 to 0.12 µg/mL
same,ED50,[4]; Intraveneous,0.46 mg/kg
same,ED50,[4]; Oral,> 8 mg/kg
same,MIC,Bacteroides spp.,0.12 to 0.5 µg/mL
same,MIC,S. aureus NEMC 8769,< 0.015 µg/mL
same,MIC,Salmonella spp.,0.25 to 0.5 µg/mL
same,MIC,Streptococcus agalactiae,0.12 to 0.25 µg/mL
same,MIC,Clostridium difficile,0.06 to 0.12 µg/mL
same,MIC,Clostridium perfringens,0.03 to 2 µg/mL
same,MIC,[5],0.5 to 8 µg/mL
same,MIC,[6],0.25 µg/mL
same,MIC,Xanthamonas maltophilia,1 to 8 µg/mL
same,MIC,[7],0.25 to 4 µg/mL
same,MIC,E. coli J2175,0.25 µg/mL
same,MIC,[8],0.03 to 0.12 µg/mL
same,MIC,E. coli PRP1 Tet A,0.5 µg/mL
same,MIC,E. coli BAJ9003 IMP MUT,no growth
same,MIC,Bacteroides fragilis,0.25 to 1 µg/mL
same,MIC,Streptococcus pneumoniae,0.03 to 0.5 µg/mL
same,MIC,Proteus mirabilis,0.12 to 2 µg/mL
same,MIC,Neisseria gonorrhoeae,0.5 to 1 µg/mL
same,MIC,Proteus vulgaris,0.06 to 1 µg/mL
same,MIC,E. faecalis ATCC 29212,0.03 µg/mL
